Data from publication PMC10518257 (Nature Cancer, 2023).
Where “and” joins values, the source holds several entries; their conditions need not be identical. Equal values may be shown once.

Legend:
LUAD-0057AS1 PDX = test: PDX efficacy study
LUAD-0087AS2 PDX = test: PDX efficacy study; conditions: LUAD-0087AS2, 30 mg/kg BID, individual animals

COc1cc2nccc(Oc3ccc(NC(=O)C4(C(=O)Nc5ccc(F)cc5)CC4)cc3)c2cc1OC [Cabozantinib]
tumor shrinkage (LUAD-0057AS1 PDX; 30 mg per kg QD): did not lead to any tumor shrinkage | Area Under Curve of tumor growth, Mean (LUAD-0057AS1 PDX; 30 mg/kg QD): 1051 | Tumor volume (LUAD-0057AS1 PDX; 30 mg/kg QD, day 0, individual animals): 139.24 mm3 and 130.83 mm3 and 132.84 mm3 and 134.85 mm3 and 137.16 mm3 and 136.86 mm3 and 128.59 mm3 (2×) | Tumor volume (LUAD-0057AS1 PDX; 30 mg/kg QD, day 3, individual animals): 143.69 mm3 (2×) and 141.55 mm3 and 159.83 mm3 and 157.37 mm3 and 161.94 mm3 and 155.09 mm3 and 150.43 mm3 | Tumor volume (LUAD-0057AS1 PDX; 30 mg/kg QD, day 7, individual animals): 150.13 mm3 and 145.84 mm3 and 157.07 mm3 and 171.9 mm3 and 159.66 mm3 and 132.84 mm3 and 161.94 mm3 and 154.85 mm3 | Tumor volume (LUAD-0057AS1 PDX; 30 mg/kg QD, day 10, individual animals): 150.13 mm3 and 154.85 mm3 (2×) and 171.06 mm3 and 197.55 mm3 and 217.15 mm3 and 132.84 mm3 and 165.92 mm3 | Tumor volume (LUAD-0057AS1 PDX; 30 mg/kg QD, day 14, individual animals): 150.13 mm3 and 176.28 mm3 and 188.03 mm3 (3×) and 224.35 mm3 and 288.71 mm3 and 168.78 mm3 | Tumor volume (LUAD-0057AS1 PDX; 30 mg/kg QD, day 19, individual animals): 150.13 mm3 and 183.33 mm3 and 195.09 mm3 and 204.49 mm3 and 294.92 mm3 and 176.28 mm3 and 193.69 mm3 and 188.03 mm3 | Tumor volume (LUAD-0057AS1 PDX; 30 mg/kg QD, day 23, individual animals): 194.67 mm3 and 219.37 mm3 and 246.79 mm3 and 251.12 mm3 and 340.1 mm3 and 242.75 mm3 and 230.72 mm3 and 228.34 mm3 | Change in Tumor Volume (LUAD-0057AS1 PDX; 30 mg/kg QD, end of study, individual tumors): 39.809% and 67.6756% and 85.7799% and 86.2217% and 147.959% and 77.371% and 79.423% and 77.5721%

COC1(C(=O)NC(C)c2ccc(-n3cc(F)cn3)nc2)CCC(c2nc(C)cc(Nc3cc(C)[nH]n3)n2)CC1 (stereo not drawn) [Prasletinib]
Tumor volume (LUAD-0087AS2 PDX; treatment day 0): 122.74 and 122.52 (2×) and 118.47 (2×) | Tumor volume (LUAD-0087AS2 PDX; treatment day 3): 116.87 and 110.97 (2×) and 118.47 and 114.83 | Tumor volume (LUAD-0087AS2 PDX; treatment day 7): 100.16 and 96.62 (2×) and 101.37 and 91.61 | Tumor volume (LUAD-0087AS2 PDX; treatment day 10): 100.16 and 103.77 and 96.62 and 99.78 and 95.03 | Tumor volume (LUAD-0087AS2 PDX; treatment day 14): 96.88 and 83.83 and 88.25 and 99.78 and 90.28 | Tumor volume (LUAD-0087AS2 PDX; treatment day 17): 103.77 and 79.42 and 83.83 (2×) and 96.62 | Tumor volume (LUAD-0087AS2 PDX; treatment day 21): 90.28 and 70.82 and 74.9 and 83.83 (2×) | Tumor volume (LUAD-0087AS2 PDX; treatment day 24): 74.9 and 54.36 and 71.99 (2×) and 58.99 | Tumor volume (LUAD-0087AS2 PDX; treatment day 29): 72.18 and 54.36 and 71.99 and 57.83 and 56.67 | Tumor volume (LUAD-0087AS2 PDX; treatment day 32): 75.04 and 60.32 (2×) and 74.9 and 57.83 | Tumor volume (LUAD-0087AS2 PDX; treatment day 35): 75.04 and 60.32 and 74.9 (2×) and 57.83 | Tumor volume (LUAD-0087AS2 PDX; treatment day 38): 75.04 and 60.32 and 77.63 and 90.28 and 57.83 | Tumor volume (LUAD-0087AS2 PDX; treatment day 42): 77.87 and 68.07 and 77.63 and 90.28 and 60.32 | Tumor volume (LUAD-0087AS2 PDX; treatment day 45): 77.87 and 68.07 and 70.69 (2×) and 60.32
